5 compounds from patent US20230346961A1, “GLP-1 AND GIP RECEPTOR CO-AGONISTS” (Novo Nordisk A/S, priority 2020, published 2023) can be followed below.

Starred links: 1 amine or outer side, 2 acyl side, 3 side chain; linkers in the order of their positions; H or OH if unused. Non-standard residues stand in square brackets, D forms with d. Residues, ends and D or L forms follow the SMILES beside them. Groups on a side chain read outwards from the residue. *: point of attachment. C18 diacid = O=C(O)CCCCCCCCCCCCCCCCC(=O)*; γGlu = O=C(O)[C@H](CCC(=O)[*:2])N[*:1]; εLys = N[C@@H](CCCCN[*:1])C(=O)[*:2]; Aib = CC(C)(N)C(=O)O Some results are limits rather than exact numbers.

For one assay, the target named is T1, mouse GLP-1 receptor (Mus musculus, UniProt O35659).
T1 sequence (O35659 22-463): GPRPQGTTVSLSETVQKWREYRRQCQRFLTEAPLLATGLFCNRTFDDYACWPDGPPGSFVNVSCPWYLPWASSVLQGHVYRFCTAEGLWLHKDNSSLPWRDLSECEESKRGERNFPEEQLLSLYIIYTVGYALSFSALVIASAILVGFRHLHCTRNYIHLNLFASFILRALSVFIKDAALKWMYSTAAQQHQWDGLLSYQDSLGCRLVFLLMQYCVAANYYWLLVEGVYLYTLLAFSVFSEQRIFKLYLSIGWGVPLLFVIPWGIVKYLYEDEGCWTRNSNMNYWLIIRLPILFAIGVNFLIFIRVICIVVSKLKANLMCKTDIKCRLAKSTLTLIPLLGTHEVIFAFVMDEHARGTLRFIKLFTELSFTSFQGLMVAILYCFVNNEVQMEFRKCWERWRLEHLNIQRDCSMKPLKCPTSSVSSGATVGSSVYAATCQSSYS

For another assay, the target named is human GLP-1 receptor (Homo sapiens, UniProt P43220). The assay can be described thus: cell-based. The settings on record: hGLP-1R.
For a further assay, the target named is T2, mouse GIP receptor (Mus musculus, UniProt Q0P543).
T2 sequence (Q0P543 19-460): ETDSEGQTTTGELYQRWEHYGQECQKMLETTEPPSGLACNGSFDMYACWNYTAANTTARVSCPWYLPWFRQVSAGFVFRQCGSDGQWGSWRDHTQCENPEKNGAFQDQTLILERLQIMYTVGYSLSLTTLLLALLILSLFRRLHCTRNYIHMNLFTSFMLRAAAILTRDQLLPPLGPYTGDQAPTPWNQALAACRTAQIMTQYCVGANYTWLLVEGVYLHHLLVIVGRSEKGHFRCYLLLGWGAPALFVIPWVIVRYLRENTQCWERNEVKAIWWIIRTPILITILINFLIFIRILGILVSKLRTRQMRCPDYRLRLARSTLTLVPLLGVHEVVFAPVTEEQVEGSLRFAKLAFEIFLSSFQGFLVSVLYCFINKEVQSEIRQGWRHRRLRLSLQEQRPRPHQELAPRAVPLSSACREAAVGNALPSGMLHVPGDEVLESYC
Description: cell-based.

Chain of human GLP-1 receptor (P43220 24-463): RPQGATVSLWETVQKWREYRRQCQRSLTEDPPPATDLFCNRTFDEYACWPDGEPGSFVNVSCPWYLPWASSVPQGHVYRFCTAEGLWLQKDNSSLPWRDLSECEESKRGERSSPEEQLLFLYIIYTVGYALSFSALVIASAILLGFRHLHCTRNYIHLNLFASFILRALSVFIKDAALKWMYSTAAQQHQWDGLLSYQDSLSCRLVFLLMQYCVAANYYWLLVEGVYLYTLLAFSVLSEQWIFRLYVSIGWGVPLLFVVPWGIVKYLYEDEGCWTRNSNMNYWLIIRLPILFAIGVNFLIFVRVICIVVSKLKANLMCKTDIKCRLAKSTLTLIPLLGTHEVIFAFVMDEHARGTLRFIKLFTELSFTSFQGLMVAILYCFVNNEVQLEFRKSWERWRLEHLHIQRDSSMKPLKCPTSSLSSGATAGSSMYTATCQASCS
Description for human GLP-1 receptor: The in vitro functional potency is the measure of target receptor activation in a whole cell assay.
In vitro functional potency was determined by measuring the response of the target receptor in a reporter gene assay in individual cell lines. […] When the respective receptor is activated, it results in the production of cAMP, which in turn results in expression of the luciferase protein. When assay incubation is completed, luciferase substrate (luciferin) is added resulting in the enzymatic conversion of luciferin to oxyluciferin and producing bioluminescence. The luminescence is measured as the readout for the assay.
The cells lines used in these assays were BHK cells with BHKTS13 as a parent cell line. The cell lines were derived from a clone containing the CRE luciferase element and were established by further transfection with the respective receptor to obtain the relevant cell line.
The cells were cultured at 37° C. with 5% CO2 in Cell Culture Medium. They were aliquoted and stored in liquid nitrogen. The cells were kept in continuous culture and were seeded out the day before each assay.
GLP-1R and GcgR Cell Culture Medium consisted of DMEM medium with 10% FBS, 500 μg/mL G418, and 300 μg/mL hygromycin. GIPR Cell Culture Medium consisted of DMEM medium with 10% FBS, 400 μg/mL G418, and 300 μg/mL hygromycin. Assay Buffer consisted of DMEM w/o phenol red, 10 mM Hepes, 1×Glutamax, 1% ovalbumin, and 0.1% Pluronic F-68 with the addition of HSA at twice the final assay concentration.
• 1) Cells were plated at 5000 cells/well and incubated overnight in the assay plate. • 2) Cells were washed once in DPBS. • 3) Stocks of the test compounds and reference compounds in concentrations ranging from 100-300 μM were diluted 1:150 in Assay Buffer. Compounds were then diluted 1:10 in column 1 of a 96 deep well dilution plate and then carried across the row creating a 3.5 fold, 12 point dilution curve. • 4) Assay Buffer (50 μl aliquot) with or without HSA was added to each well in the assay plate. • 5) A 50 μl aliquot of compound or blank was transferred from the dilution plate to the assay plate containing the Assay Buffer with or without HSA. • 6) The assay plate was incubated for 3 h in a 5% CO2 incubator at 37° C. 7) The cells were washed once with DPBS. • 8) A 100 μl aliquot of DPBS was added to each well of the assay plate. • 9) A 100 μl aliquot of steadylite plus reagent (light sensitive) was added to each well of the assay plate. • 10) Each assay plate was covered with aluminum foil to protect it from light and shaken at 250 RPM for 30 min at room temperature. • 11) Each assay plate was read in a microtiter plate reader.
The data from the microtiter plate reader was first regressed in an Excel in order to calculate the x-axis, log scale concentrations based on the individual test compound's stock concentration and the dilutions of the assay. […] The software performs a non-linear regression (log(agonist) vs response). A minimum of two replicates was measured for each sample. The reported values are averages of the replicates.

In the case of `CC[C@H](C)[C@H](NC(=O)[C@H](CO)NC(=O)[C@H](Cc1ccc(O)cc1)NC(=O)[C@H](CC(=O)O)NC(=O)[C@H](CO)NC(=O)[C@@H](NC(=O)[C@H](Cc1ccccc1)NC(=O)[C@@H](NC(=O)CNC(=O)[C@H](CCC(=O)O)NC(=O)C(C)(C)NC(=O)[C@@H](N)Cc1ccc(O)cc1)[C@@H](C)O)[C@@H](C)O)C(=O)N[C@@H](Cc1ccc(O)cc1)C(=O)N[C@@H](CC(C)C)C(=O)N[C@@H](CC(=O)O)C(=O)N[C@@H](CCCCN)C(=O)N[C@@H](CCC(N)=O)C(=O)N[C@@H](C)C(=O)N[C@@H](C)C(=O)NC(C)(C)C(=O)N[C@@H](CCC(=O)O)C(=O)N[C@@H](Cc1ccccc1)C(=O)N[C@H](C(=O)N[C@@H](CC(N)=O)C(=O)N[C@@H](Cc1c[nH]c2ccccc12)C(=O)N[C@@H](CC(C)C)C(=O)N[C@@H](CC(C)C)C(=O)N[C@@H](C)C(=O)NCC(=O)NCC(=O)N1CCC[C@H]1C(=O)N[C@@H](CO)C(=O)N[C@@H](CO)C(=O)NCC(=O)N[C@@H](C)C(=O)N1CCC[C@H]1C(=O)N1CCC[C@H]1C(=O)N1CCC[C@H]1C(=O)N[C@@H](CO)C(=O)N[C@@H](CCCCNC(=O)[C@@H](N)CCCCNC(=O)[C@@H](N)CCCCNC(=O)CC[C@H](NC(=O)CCCCCCCCCCCCCCCCC(=O)O)C(=O)O)C(N)=O)C(C)C` [Compound 10], the EC50 on mouse GLP-1 receptor worked out at 0.0021 nM; on human GLP-1 receptor (CRE Luc 0% HSA EC50, 0% HSA) it was 0.0182 nM; at human GLP-1 receptor (CRE Luc 1% HSA EC50, 1% HSA), 0.298 nM; at mouse GIP receptor, 0.259 nM.

For `CC[C@H](C)[C@H](NC(=O)[C@H](CO)NC(=O)[C@H](Cc1ccc(O)cc1)NC(=O)[C@H](CC(=O)O)NC(=O)[C@H](CO)NC(=O)[C@@H](NC(=O)[C@H](Cc1ccccc1)NC(=O)[C@@H](NC(=O)CNC(=O)[C@H](CCC(=O)O)NC(=O)C(C)(C)NC(=O)[C@@H](N)Cc1ccc(O)cc1)[C@@H](C)O)[C@@H](C)CC)C(=O)N[C@@H](Cc1ccc(O)cc1)C(=O)N[C@@H](CC(C)C)C(=O)N[C@@H](CC(=O)O)C(=O)N[C@@H](CCCCN)C(=O)N[C@@H](CCC(N)=O)C(=O)N[C@@H](C)C(=O)N[C@@H](C)C(=O)NC(C)(C)C(=O)N[C@@H](CCCCNC(=O)[C@@H](N)CCCCNC(=O)[C@@H](N)CCCCNC(=O)CC[C@H](NC(=O)CCCCCCCCCCCCCCCCC(=O)O)C(=O)O)C(=O)N[C@@H](Cc1ccccc1)C(=O)N[C@H](C(=O)N[C@@H](CC(N)=O)C(=O)N[C@@H](Cc1c[nH]c2ccccc12)C(=O)N[C@@H](CC(C)C)C(=O)N[C@@H](CC(C)C)C(=O)N[C@@H](C)C(=O)NCC(=O)NCC(=O)N1CCC[C@H]1C(=O)N[C@@H](CO)C(=O)N[C@@H](CO)C(=O)NCC(=O)N[C@@H](C)C(=O)N1CCC[C@H]1C(=O)N1CCC[C@H]1C(=O)N1CCC[C@H]1C(=O)N[C@@H](CO)C(N)=O)C(C)C` [Compound 11] (H-Y[Aib]EGTFISDYSIYLDKQAA[Aib]K([εLys-εLys-γGlu-C18 diacid])FVNWLLAGGPSSGAPPPS-NH2; N-terminus assumed), the EC50 was 0.281 nM on mouse GLP-1 receptor; 0.394 nM at human GLP-1 receptor (CRE Luc 0% HSA EC50, 0% HSA); 0.0137 nM on mouse GIP receptor.

Turning to `CC[C@H](C)[C@H](NC(=O)[C@H](CO)NC(=O)[C@@H](NC(=O)[C@H](CC(=O)O)NC(=O)[C@H](CO)NC(=O)[C@@H](NC(=O)[C@H](Cc1ccccc1)NC(=O)[C@@H](NC(=O)CNC(=O)[C@H](CCC(=O)O)NC(=O)C(C)(C)NC(=O)[C@@H](N)Cc1c[nH]cn1)[C@@H](C)O)[C@@H](C)O)C(C)C)C(=O)N[C@@H](Cc1ccc(O)cc1)C(=O)N[C@@H](CC(C)C)C(=O)N[C@@H](CC(=O)O)C(=O)N[C@@H](CCCCN)C(=O)N[C@@H](CCC(N)=O)C(=O)N[C@@H](C)C(=O)N[C@@H](C)C(=O)NC(C)(C)C(=O)N[C@@H](CCCCNC(=O)[C@@H](N)CCCCNC(=O)[C@@H](N)CCCCNC(=O)CC[C@H](NC(=O)CCCCCCCCCCCCCCCCC(=O)O)C(=O)O)C(=O)N[C@@H](Cc1ccccc1)C(=O)N[C@H](C(=O)N[C@@H](CC(N)=O)C(=O)N[C@@H](Cc1c[nH]c2ccccc12)C(=O)N[C@@H](CC(C)C)C(=O)N[C@@H](CC(C)C)C(=O)N[C@@H](C)C(=O)NCC(=O)NCC(=O)N1CCC[C@H]1C(=O)N[C@@H](CO)C(=O)N[C@@H](CO)C(=O)NCC(=O)N[C@@H](C)C(=O)N1CCC[C@H]1C(=O)N1CCC[C@H]1C(=O)N1CCC[C@H]1C(=O)N[C@@H](CO)C(N)=O)C(C)C` [Compound 12] (H-H[Aib]EGTFTSDVSIYLDKQAA[Aib]K([εLys-εLys-γGlu-C18 diacid])FVNWLLAGGPSSGAPPPS-NH2; N-terminus assumed), the EC50 at mouse GLP-1 receptor is 0.0022 nM; at human GLP-1 receptor (CRE Luc 0% HSA EC50, 0% HSA), 0.0029 nM; on mouse GIP receptor, above 10 nM.

Turning to `CC[C@H](C)[C@H](NC(=O)[C@H](CO)NC(=O)[C@H](Cc1ccc(O)cc1)NC(=O)[C@H](CC(=O)O)NC(=O)[C@H](CO)NC(=O)[C@@H](NC(=O)[C@H](Cc1ccccc1)NC(=O)[C@@H](NC(=O)CNC(=O)[C@H](CCC(=O)O)NC(=O)C(C)(C)NC(=O)[C@@H](N)Cc1ccc(O)cc1)[C@@H](C)O)[C@@H](C)O)C(=O)N[C@@H](Cc1ccc(O)cc1)C(=O)N[C@@H](CC(C)C)C(=O)N[C@@H](CCC(=O)O)C(=O)N[C@@H](CCCCN)C(=O)N[C@@H](CCC(N)=O)C(=O)N[C@@H](C)C(=O)N[C@@H](C)C(=O)NC(C)(C)C(=O)N[C@@H](CCCCNC(=O)[C@@H](N)CCCCNC(=O)[C@@H](N)CCCCNC(=O)CC[C@H](NC(=O)CCCCCCCCCCCCCCCCC(=O)O)C(=O)O)C(=O)N[C@@H](Cc1ccccc1)C(=O)N[C@H](C(=O)N[C@@H](CC(N)=O)C(=O)N[C@@H](Cc1c[nH]c2ccccc12)C(=O)N[C@@H](CC(C)C)C(=O)N[C@@H](CC(C)C)C(=O)N[C@@H](C)C(=O)NCC(=O)NCC(=O)N1CCC[C@H]1C(=O)N[C@@H](CO)C(=O)N[C@@H](CO)C(=O)NCC(=O)N[C@@H](C)C(=O)N1CCC[C@H]1C(=O)N1CCC[C@H]1C(=O)N1CCC[C@H]1C(=O)N[C@@H](CO)C(N)=O)C(C)C` [Compound 15] (H-Y[Aib]EGTFTSDYSIYLEKQAA[Aib]K([εLys-εLys-γGlu-C18 diacid])FVNWLLAGGPSSGAPPPS-NH2; N-terminus assumed), the EC50 is 0.0017 nM on mouse GLP-1 receptor; 0.0061 nM on human GLP-1 receptor (CRE Luc 0% HSA EC50, 0% HSA); 0.128 nM on human GLP-1 receptor (CRE Luc 1% HSA EC50, 1% HSA); 0.0273 nM at mouse GIP receptor.

In the case of `CC[C@H](C)[C@H](NC(=O)[C@H](CO)NC(=O)[C@H](Cc1ccc(O)cc1)NC(=O)[C@H](CC(=O)O)NC(=O)[C@H](CO)NC(=O)[C@@H](NC(=O)[C@H](Cc1ccccc1)NC(=O)[C@@H](NC(=O)CNC(=O)[C@H](CCC(=O)O)NC(=O)C(C)(C)NC(=O)[C@@H](N)Cc1ccc(O)cc1)[C@@H](C)O)[C@@H](C)O)C(=O)N[C@@H](Cc1ccc(O)cc1)C(=O)N[C@@H](CC(C)C)C(=O)N[C@@H](CCC(=O)O)C(=O)N[C@@H](CCCCN)C(=O)N[C@@H](CCC(N)=O)C(=O)N[C@@H](C)C(=O)N[C@@H](C)C(=O)NC(C)(C)C(=O)N[C@@H](CCCCNC(=O)[C@@H](N)CCCCNC(=O)[C@@H](N)CCCCNC(=O)CC[C@H](NC(=O)CCCCCCCCCCCCCCCCC(=O)O)C(=O)O)C(=O)N[C@@H](Cc1ccccc1)C(=O)N[C@H](C(=O)N[C@@H](CC(N)=O)C(=O)N[C@@H](Cc1c[nH]c2ccccc12)C(=O)N[C@@H](CC(C)C)C(=O)N[C@@H](CC(C)C)C(=O)N[C@@H](C)C(=O)NCC(=O)NCC(=O)N1CCC[C@H]1C(=O)N[C@@H](CO)C(=O)N[C@@H](CO)C(=O)NCC(=O)N[C@@H](C)C(N)=O)C(C)C` [Compound 18] (H-Y[Aib]EGTFTSDYSIYLEKQAA[Aib]K([εLys-εLys-γGlu-C18 diacid])FVNWLLAGGPSSGA-NH2; N-terminus assumed), the EC50 is 0.002 nM at mouse GLP-1 receptor; 0.0033 nM at human GLP-1 receptor (CRE Luc 0% HSA EC50, 0% HSA); 0.0899 nM on human GLP-1 receptor (CRE Luc 1% HSA EC50, 1% HSA); 0.0243 nM on mouse GIP receptor.

One may read the EC50 as the concentration at which the effect is half-maximal.
